Ki data for 33 compounds are collected here from US10208068B2, “Macrocycles as factor XIa inhibitors” (BRISTOL-MYERS SQUIBB COMPANY, priority 2011, dated 2019).

Molecules are shown by their SMILES. Where a name gives a salt, the structure may show the parent alone. A value given as a limit tells only on which side of the number the result lay.

Usually Ki stands for the dissociation constant of the complex between target and ligand, obtained from inhibition or displacement. Low values mean a stronger hold on the target, high ones a looser hold on the target.

The experiment concerns the target human Factor XIa (Homo sapiens (Human), UniProt P03951). As to the kind of experiment: Factor XIa enzyme inhibition assay (chromogenic substrate S-2366). It is filed as biochemical. As to conditions: purified human Factor XIa 25-200 pM, substrate S-2366, 50 mM HEPES pH 7.4.

human Factor XIa, sequence (P03951 388-625): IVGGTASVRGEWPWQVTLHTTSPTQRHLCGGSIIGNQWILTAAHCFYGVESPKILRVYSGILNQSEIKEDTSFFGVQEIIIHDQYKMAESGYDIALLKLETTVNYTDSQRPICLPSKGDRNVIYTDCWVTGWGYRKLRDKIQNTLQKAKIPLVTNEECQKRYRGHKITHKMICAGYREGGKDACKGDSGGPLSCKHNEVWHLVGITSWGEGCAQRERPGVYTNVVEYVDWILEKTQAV
human Factor XIa, sequence (P03951 19-387 partner): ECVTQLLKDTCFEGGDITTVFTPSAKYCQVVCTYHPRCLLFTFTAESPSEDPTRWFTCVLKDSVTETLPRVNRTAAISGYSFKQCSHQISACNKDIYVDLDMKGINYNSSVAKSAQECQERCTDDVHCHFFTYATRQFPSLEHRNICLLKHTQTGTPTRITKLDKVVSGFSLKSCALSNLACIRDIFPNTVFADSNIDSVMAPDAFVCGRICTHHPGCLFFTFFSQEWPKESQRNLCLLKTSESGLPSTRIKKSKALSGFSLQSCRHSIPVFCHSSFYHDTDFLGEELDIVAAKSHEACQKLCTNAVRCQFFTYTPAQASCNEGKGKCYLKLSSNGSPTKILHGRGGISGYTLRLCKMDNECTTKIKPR

For `CCC1CCC[C@H](NC(=O)c2cn(-c3cccc(Cl)c3F)nn2)c2cc(ccn2)-c2ccc(NC(=O)OC)cc2NC1=O` (single isomer, unassigned) [Example 24, TFA salt], the Ki is < 5 nM.
For `COC(=O)Nc1ccc2c(c1)NC(=O)[C@H](C)C(O)CC[C@H](NC(=O)c1cnn(-c3cccc(Cl)c3F)c1C)c1cc-2ccn1` (single isomer, unassigned) [Example 177, TFA salt], affinity was put at a Ki of 54.9 nM.
With `COC(=O)Nc1ccc2c(c1)C(=O)NC(C)CCC[C@H](NC(=O)c1cnn(-c3cccc(Cl)c3F)c1C)c1cc-2ccn1` (single isomer, unassigned) [Example 221], the Ki was found to be 312 nM.
Next, `COC(=O)Nc1ccc2c(c1)NC(=O)[C@H](C)CCC[C@H](NC(=O)c1cn(-c3cccc(Cl)c3F)nn1)c1cc-2ccn1` [Example 3]: < 5 nM.
The compound `COC(=O)Nc1ccc2c(c1)NC(=O)[C@H](C)CCC[C@H](NC(=O)c1cnn(C3CCCNC3)c1)c1cc-2ccn1` (stereo partly drawn) [Example 11] displayed a Ki of 69.4 nM.
To `COC(=O)Nc1ccc2c(c1)NC(=O)[C@H](C)CCC[C@H](NC(=O)c1nnn(-c3cccc(Cl)c3F)c1Cl)c1cc-2ccn1` [Example 15] belongs < 5 nM.
`COC(=O)Nc1ccc2c(c1)NC(=O)[C@H](C)CCC[C@H](NC(=O)c1cn(-c3cccc(C)c3)cn1)c1cc-2ccn1` [Example 18]: the affinity corresponds to a Ki of 98.7 nM.
With `COC(=O)Nc1ccc2c(c1)NC(=O)CCCC[C@H](NC(=O)c1cnn(-c3cccc(Cl)c3F)c1)c1cc-2ccn1` [Example 21, Methyl N-[(14S)-14-[1-(3-chloro-2-fluorophenyl)-1H-pyrazole-4-amido]-9-oxo-8,16-diazatricyclo[13.3.1.0^2,7]nonadeca-1(19),2(7),3,5,15,17-hexaen-5-yl]carbamate, TFA salt], the Ki worked out at 9.08 nM.
To `CCOC(=O)C1CCCC[C@H](NC(=O)c2cnn(-c3cccc(Cl)c3F)c2)c2cc(ccn2)-c2ccc(NC(=O)OC)cc2N1` (stereo partly drawn) [Example 26, Ethyl (9R,14S)-14-[1-(3-chloro-2-fluorophenyl)-1H-pyrazole-4-amido]-5-[(methoxycarbonyl)amino]-8,16-diazatricyclo[13.3.1.0^2,7]nonadeca-1(19),2(7),3,5,15,17-hexaene-9-carboxylate, 2 TFA salt] belongs 178 nM; to `COC(=O)Nc1ccc2c(c1)NC(=O)CCCC[C@H](NC(=O)c1cnn(-c3cccc(Cl)c3F)c1)c1cc-2cnc1F` [Example 32, Methyl N-[(14S)-14-[1-(3-chloro-2-fluorophenyl)-1H-pyrazole-4-amido]-16-fluoro-9-oxo-8,17-diazatricyclo[13.3.1.0^2,7]nonadeca-1(19),2(7),3,5,15,17-hexaen-5-yl]carbamate, TFA salt], 11.4 nM.
To `COC(=O)Nc1ccc2c(c1)NC(=O)[C@H](C)CCC[C@H](NC(=O)c1nnn(-c3cccc(Cl)c3F)c1C)c1nc-2c[nH]1` [Example 39] belongs 10.8 nM; to `COC(=O)Nc1ccc2c(c1)NC(=O)[C@H](C)CCC[C@H](NC(=O)c1cnn(-c3cccc(Cl)c3)c1C)c1nc-2c[nH]1` [Example 41], 12.8 nM; to `COC(=O)Nc1ccc2c(c1)NC(=O)CCCC[C@H](NC(=O)c1cn(-c3cccc(Cl)c3)nn1)c1nc-2c[nH]1` [Example 52, Methyl N-[(14S)-14-[1-(3-chlorophenyl)-1H-1,2,3-triazole-4-amido]-9-oxo-8,16,18-triazatricyclo[13.2.1.0^2,7]octadeca-1(17),2,4,6,15(18)-pentaen-5-yl]carbamate], 217 nM.
`COC(=O)Nc1ccc2c(c1)NC(=O)CC/C=C/C[C@H](NC(=O)c1c[nH]c(-c3c(F)ccc(Cl)c3F)n1)c1nc-2c[nH]1` [Example 58, Methyl ((12E,15S)-15-(((2-(3-chloro-2,6-difluorophenyl)-1H-imidazol-4-yl)carbonyl)amino)-9-oxo-8,17,19-triazatricyclo[14.2.1.0^2,7]nonadeca-1(18),2,4,6,12,16(19)-hexaen-5-yl)carbamate] showed a Ki of 935 nM.
To `COC(=O)Nc1ccc2c(c1)NC(=O)[C@H](C)CCC[C@H](NC(=O)c1cn(-c3c(F)ccc(Cl)c3F)cn1)c1cc-2ccn1` [Example 72] belongs 10.4 nM; to `COC(=O)Nc1ccc2c(c1)NC(=O)[C@H](C)CCC[C@H](NC(=O)c1cncc(-c3cccc(Cl)c3F)c1)c1cc-2ccn1` [Example 75], 36.5 nM; to `COC(=O)Nc1ccc2c(c1)NC(=O)CCCC(C)[C@H](NC(=O)c1nnn(-c3cccc(Cl)c3F)c1C)c1cc-2ccn1` (stereo partly drawn) [Example 88, Methyl N-[(14S)-14-[1-(3-chloro-2-fluorophenyl)-5-methyl-1H-1,2,3-triazole-4-amido]-13-methyl-9-oxo-8,16-diazatricyclo[13.3.1.0^2,7]nonadeca-1(19),2(7),3,5,15,17-hexaen-5-yl]carbamate], 52.6 nM.
Next, `Cc1c(C(=O)N[C@H]2CCC[C@@H](C)C(=O)Nc3cc(NC(=O)C(F)(F)F)ccc3-c3ccnc2c3)nnn1-c1cccc(Cl)c1F` [Example 137, 1-(3-Chloro-2-fluorophenyl)-5-methyl-N-[(10R,14S)-10-methyl-9-oxo-5-(trifluoroacetamido)-8,16-diazatricyclo[13.3.1.0^2,7]nonadeca-1(19),2(7),3,5,15,17-hexaen-14-yl]-1H-1,2,3-triazole-4-carboxamide]: 547 nM; `Cc1c(C(=O)N[C@H]2CCC[C@@H](C)C(=O)Nc3cc(NC(=O)OCF)ccc3-c3ccnc2c3)nnn1-c1cccc(Cl)c1F` [Example 139, Fluoromethyl N-[(10R,14S)-14-[1-(3-chloro-2-fluorophenyl)-5-methyl-1H-1,2,3-triazole-4-amido]-10-methyl-9-oxo-8,16-diazatricyclo[13.3.1.0^2,7]nonadeca-1(19),2(7),3,5,15,17-hexaen-5-yl]carbamate]: 5.49 nM.
Take `Cc1c(C(=O)N[C@H]2CCC[C@@H](C)C(=O)Nc3cc(Nc4ccncn4)ccc3-c3ccnc2c3)nnn1-c1cccc(Cl)c1F` [Example 151]: the Ki amounted to 17.3 nM.
The compound `CCOC(=O)CNc1ccc2c(c1)NC(=O)[C@H](C)CCC[C@H](NC(=O)c1nnn(-c3cccc(Cl)c3F)c1C)c1cc-2ccn1` [Example 156, Ethyl 2-{[(10R,14S)-14-[1-(3-chloro-2-fluorophenyl)-5-methyl-1H-1,2,3-triazole-4-amido]-10-methyl-9-oxo-8,16-diazatricyclo[13.3.1.0^2,7]nonadeca-1(19),2(7),3,5,15,17-hexaen-5-yl]amino}acetate] displayed a Ki of 16.8 nM.
`Cc1c(C(=O)N[C@H]2CCC[C@@H](C)C(=O)Nc3cc(N)c(C(=O)O)cc3-c3ccnc2c3)nnn1-c1cccc(Cl)c1F` [Example 158, (10R,14S)-5-Amino-14-[1-(3-chloro-2-fluorophenyl)-5-methyl-1H-1,2,3-triazole-4-amido]-10-methyl-9-oxo-8,16-diazatricyclo[13.3.1.0^2,7]nonadeca-1(19),2(7),3,5,15,17-hexaene-4-carboxylic acid]: the inhibitory constant (Ki) is < 5 nM.
Compound `Cc1nnc(Nc2ccc3c(c2)NC(=O)[C@H](C)CCC[C@H](NC(=O)c2nnn(-c4cccc(Cl)c4F)c2C)c2cc-3ccn2)o1` [Example 159, 1-(3-Chloro-2-fluorophenyl)-5-methyl-N-[(10R,14S)-10-methyl-5-[(5-methyl-1,3,4-oxadiazol-2-yl)amino]-9-oxo-8,16-diazatricyclo[13.3.1.0^2,7]nonadeca-1(19),2(7),3,5,15,17-hexaen-14-yl]-1H-1,2,3-triazole-4-carboxamide] registered a Ki of 9.94 nM.
With `Cc1c(C(=O)N[C@H]2CCC[C@H](C)C(=O)Nc3cc(-c4ccn[nH]4)ccc3-c3ccnc2c3)nnn1-c1cccc(Cl)c1F` [Example 165, 1-(3-Chloro-2-fluorophenyl)-5-methyl-N-[(10S,14S)-10-methyl-9-oxo-5-(1H-pyrazol-5-yl)-8,16-diazatricyclo[13.3.1.0^2,7]nonadeca-1(19),2(7),3,5,15,17-hexaen-14-yl]-1H-1,2,3-triazole-4-carboxamide, TFA salt], affinity was put at a Ki of 5080 nM.
`Cc1c(C(=O)N[C@H]2CCC[C@@H](C)C(=O)Nc3cc(C(N)=O)ccc3-c3ccnc2c3)cnn1-c1cccc(Cl)c1F` [Example 190, (10R,14S)-14-C-1-(3-Chloro-2-fluorophenyl)-5-methyl-1H-pyrazole-4-10-methyl-9-oxo-8,16-diazatricyclo[13.3.1.0^2,7]nonadeca-1(19),2(7),3,5,15,17-hexaene-5,14-diamido, TFA salt]: the affinity corresponds to a Ki of 6.65 nM.
Next, `Cc1c(C(=O)N[C@H]2CCCCC(=O)Nc3cc(C(=O)N(C)C)ccc3-c3ccnc2c3)cnn1-c1cccc(Cl)c1F` [Example 193, (14S)-14-C-1-(3-Chloro-2-fluorophenyl)-5-methyl-1H-pyrazole-4-5-N,5-N-dimethyl-9-oxo-8,16-diazatricyclo[13.3.1.0^2,7]nonadeca-1(19),2(7),3,5,15,17-hexaene-5,14-diamido, TFA salt]: 2980 nM; `COC(=O)Nc1ccc2c(c1)NC(=O)[C@H](C)CCC[C@H](NC(=O)c1nnn(-c3c(F)ccc(Cl)c3F)c1C)c1nc-2c[nH]1` [Example 207]: 153 nM; `COC(=O)Nc1ccc2c(c1)NC(=O)[C@H](C)CCC[C@H](NC(=O)c1cnn(-c3cccc(Cl)c3F)c1C)c1cc(OC)nc-2c1` [Example 227]: < 5 nM.
Regarding `COC(=O)Nc1ccc2c(c1)NC(=O)[C@@H](C)CCC[C@@H](NC(=O)c1cnn(-c3cccc(Cl)c3F)c1C)c1cc-2ncc1F` [Example 232], affinity was put at a Ki of 4290 nM.
To `COC(=O)Nc1ccc2c(c1)NC(=O)CCCC[C@H](NC(=O)c1cnn(-c3cccc(Cl)c3F)c1C)c1cc-2ccn1` [Example 234] belongs < 5 nM; to `COC(=O)Nc1ccc2c(c1)NC(=O)[C@H](C)CCC[C@H](NC(=O)c1cnn(-c3cccc(Cl)c3F)c1C)c1cc-2cnn1` [Example 246], < 5 nM; to `COCCOC(=O)Nc1ccc2c(c1)NC(=O)[C@H](C)CCC[C@H](NC(=O)c1ncn(-c3cccc(Cl)c3F)c1C)c1cc-2ccn1` [Example 251], < 5 nM.
On to `COC(=O)Nc1ccc2c(c1)NC(=O)[C@H](C)CCC[C@H](NC(=O)c1ncn(-c3cccc(Cl)c3F)c1C)c1cc-2cc(=O)[nH]1` [Example 256], for which the inhibitory constant (Ki) was < 5 nM.
